Test results taken from patent US9918990B2, “Substituted pyrrolo[2,3-c]pyridines and pyrazolo[3,4-c]pyridines as BET protein inhibitors” (Incyte Corporation, priority 2013, dated 2018).
Structures can show the parent of a compound that is named as a salt. Blank lines part the entries; values can stand above or below the molecule they belong to.

Assays:
BRD4-BD1 = BRD4-BD1 (Homo sapiens (Human), UniProt O60885); test: BRD4 AlphaScreen assay, BRD4-BD1; type: binding; settings: H4Ac4 peptide, 75 min, room temperature, read-out: BRD4 BD-1 enzyme IC50
How it was run: (§1)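 AlphaScreen read after 75 min dark incubation at room temperature, inhibitors serially diluted in DMSO and added before other components. IC50 from fit of percent control activity versus log inhibitor concentration.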

KMS.12.BM cells = test: KMS.12.BM cell viability assay (Cell Titer-GLO, ATP quantitation); type: cell-based; settings: Homo sapiens, 72 h, 3 days, concentration required for 50% cell death, read-out: KMS cellular IC50
How it was run: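 Human myeloma KMS.12.BM cells, 5000 cells/well in RPMI with 10% FBS, were exposed to a compound concentration range for 3 days. Viability was read by Cell Titer-GLO ATP luminescence relative to untreated cells; IC50 is the concentration giving 50% cell death.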

BRD4-BD2 = BRD4-BD2 (Homo sapiens (Human), UniProt O60885); test: BRD4 AlphaScreen assay, BRD4-BD2; type: binding; settings: H4Ac4 peptide, 75 min, room temperature, read-out: BRD4 BD-2 enzyme IC50
How it was run: as §1

C-myc = test: KMS.12.BM C-myc ELISA assay; type: cell-based; settings: Homo sapiens; KMS.12.BM cells, 2 hours, concentration required for 50% C-myc inhibition
Procedure: KMS.12.BM cell line (human myeloma) was purchased from JCRB (Osaka, Japan) and maintained in RPMI with 10% FBS culture medium. To measure the C-myc inhibitory activity of the compounds, the KMS.12.BM cells are plated in the RPMI culture medium at 75000 cells/well/per 200 μL into a 96-well flat bottom polystyrene tissue culture plate (Corning through VWR, NJ), in the presence or absence of a concentration range of test compounds. After 2 hours, cell are pelleted and lysed with Cell Extraction Buffer (BioSource, Carlsbad, Calif.) in the presence of protease inhibitors (Life Technologies, Grand Island, N.Y. and Sigma, St Louis, Mo.). Clarified lyses are tested in a C-myc commercial ELISA (Life Technologies, Grand Island, N.Y.). Compound inhibition is determined relative to cells cultured with no drug and the IC50 is reported as the compound concentration required for 50% C-myc inhibition. IC50 data for the Examples is presented in Table 10 as determined by Assay C1.

Compound: C[C@@H]1CN(CCn2c(=O)[nH]c3c(Oc4ccccc4)c(-c4cn(C)c(=O)c5[nH]ccc45)ccc32)C[C@H](C)O1 [Example 70, 1-{2-[(2R,6S)-2,6-Dimethylmorpholin-4-yl]ethyl}-5-(6-methyl-7-oxo-6,7-dihydro-1H-pyrrolo[2,3-c]pyridin-4-yl)-4-phenoxy-1,3-dihydro-2H-benzimidazol-2-one trifluoroacetate]
IC50 (BRD4-BD1): < 0.1 µM
IC50 (KMS.12.BM cells): ≤ 1 µM
IC50 (BRD4-BD2): < 0.1 µM
IC50 (C-myc): ≤ 1 µM

Compound: Cn1cc(-c2ccc3c(ncn3Cc3ccccc3)c2Oc2ccccc2)c2cc[nH]c2c1=O [Example 46, 4-(1-Benzyl-4-phenoxy-1H-benzimidazol-5-yl)-6-methyl-1,6-dihydro-7H-pyrrolo[2,3-c]pyridin-7-one]
IC50 (BRD4-BD1): < 0.1 µM
IC50 (KMS.12.BM cells): ≤ 1 µM
IC50 (BRD4-BD2): < 0.1 µM
IC50 (C-myc): ≤ 1 µM

Compound: Cn1cc(-c2ccc3c(ncn3CCN3CCOCC3)c2Oc2ccc(F)cc2F)c2cn[nH]c2c1=O [Example 17, 4-[4-(2,4-Difluorophenoxy)-1-(2-morpholin-4-ylethyl)-1H-benzimidazol-5-yl]-6-methyl-1,6-dihydro-7H-pyrazolo[3,4-c]pyridin-7-one]
IC50 (BRD4-BD1): < 0.1 µM
IC50 (KMS.12.BM cells): ≤ 1 µM
IC50 (BRD4-BD2): < 0.1 µM
IC50 (C-myc): ≤ 1 µM

Compound: Cn1cc(-c2ccc3oc(CN)nc3c2Oc2ccccc2)c2cc[nH]c2c1=O [Example 103, 4-[2-(Aminomethyl)-4-phenoxy-1,3-benzoxazol-5-yl]-6-methyl-1,6-dihydro-7H-pyrrolo[2,3-c]pyridin-7-one]
IC50 (BRD4-BD1): < 0.1 µM
IC50 (KMS.12.BM cells): ≤ 1 µM
IC50 (BRD4-BD2): < 0.1 µM
IC50 (C-myc): ≤ 1 µM

Compound: Cn1cc(-c2ccc3oc(CNC(=O)c4ccccc4)nc3c2Oc2ccccc2)c2cc[nH]c2c1=O [Example 106, N-{[5-(6-methyl-7-oxo-6,7-dihydro-1H-pyrrolo[2,3-c]pyridin-4-yl)-4-phenoxy-1,3-benzoxazol-2-yl]methyl}benzamide]
IC50 (BRD4-BD1): < 0.1 µM
IC50 (KMS.12.BM cells): ≤ 1 µM
IC50 (BRD4-BD2): < 0.1 µM
IC50 (C-myc): 1 to 10 µM

Compound: Cn1cc(-c2ccc3[nH]nnc3c2Oc2ccc(F)cc2F)c2cn[nH]c2c1=O [Example 10, 4-[4-(2,4-Difluorophenoxy)-1H-1,2,3-benzotriazol-5-yl]-6-methyl-1,6-dihydro-7H-pyrazolo[3,4-c]pyridin-7-one]
IC50 (BRD4-BD1): < 0.1 µM
IC50 (KMS.12.BM cells): ≤ 1 µM
IC50 (BRD4-BD2): < 0.1 µM
IC50 (C-myc): ≤ 1 µM

Compound: Cn1cc(-c2ccc3c(ncn3C)c2Oc2cccc(F)c2)c2cc[nH]c2c1=O [Example 58, 4-[4-(3-Fluorophenoxy)-1-methyl-1H-benzimidazol-5-yl]-6-methyl-1,6-dihydro-7H-pyrrolo[2,3-c]pyridin-7-one]
IC50 (BRD4-BD1): < 0.1 µM
IC50 (KMS.12.BM cells): ≤ 1 µM
IC50 (BRD4-BD2): < 0.1 µM
IC50 (C-myc): ≤ 1 µM

Compound: Cn1cc(-c2ccc3c(ncn3C)c2Oc2ccccc2F)c2cc[nH]c2c1=O [Example 57, 4-[4-(2-Fluorophenoxy)-1-methyl-1H-benzimidazol-5-yl]-6-methyl-1,6-dihydro-7H-pyrrolo[2,3-c]pyridin-7-one]
IC50 (BRD4-BD1): < 0.1 µM
IC50 (KMS.12.BM cells): ≤ 1 µM
IC50 (BRD4-BD2): < 0.1 µM
IC50 (C-myc): ≤ 1 µM

Compound: Cn1cc(-c2ccc3c(ncn3CCC#N)c2Oc2ccccc2)c2cc[nH]c2c1=O [Example 113, 3-[5-(6-Methyl-7-oxo-6,7-dihydro-1H-pyrrolo[2,3-c]pyridin-4-yl)-4-phenoxy-1H-benzimidazol-1-yl]propanenitrile]
IC50 (BRD4-BD1): < 0.1 µM
IC50 (KMS.12.BM cells): ≤ 1 µM
IC50 (BRD4-BD2): < 0.1 µM
IC50 (C-myc): ≤ 1 µM

Compound: Cc1nc2c(Oc3ccc(F)cc3F)c(-c3cn(C)c(=O)c4[nH]ccc34)ccc2n1C [Example 5, 4-[4-(2,4-Difluorophenoxy)-1,2-dimethyl-1H-benzimidazol-5-yl]-6-methyl-1,6-dihydro-7H-pyrrolo[2,3-c]pyridin-7-one trifluoroacetate]
IC50 (BRD4-BD1): < 0.1 µM
IC50 (KMS.12.BM cells): ≤ 1 µM
IC50 (BRD4-BD2): < 0.1 µM
IC50 (C-myc): ≤ 1 µM

Compound: Cn1cc(-c2ccc3[nH]c(=O)[nH]c3c2Oc2ccccc2)c2cc[nH]c2c1=O [Example 22, 5-(6-Methyl-7-oxo-6,7-dihydro-1H-pyrrolo[2,3-c]pyridin-4-yl)-4-phenoxy-1,3-dihydro-2H-benzimidazol-2-one]
IC50 (BRD4-BD1): < 0.1 µM
IC50 (KMS.12.BM cells): ≤ 1 µM
IC50 (BRD4-BD2): < 0.1 µM
IC50 (C-myc): ≤ 1 µM

Compound: Cn1cc(-c2ccc3c([nH]c(=O)n3C)c2OCc2ccc(F)cc2F)c2cc[nH]c2c1=O [Example 28, 4-[(2,4-Difluorobenzyl)oxy]-1-methyl-5-(6-methyl-7-oxo-6,7-dihydro-1H-pyrrolo[2,3-c]pyridin-4-yl)-1,3-dihydro-2H-benzimidazol-2-one]
IC50 (BRD4-BD1): 0.1 to 1 µM
IC50 (KMS.12.BM cells): ≤ 1 µM
IC50 (BRD4-BD2): < 0.1 µM
IC50 (C-myc): 1 to 10 µM

Now from value to molecule, other results behind:

IC50 (BRD4-BD1): < 0.1 µM
IC50 (BRD4-BD2): < 0.1 µM
IC50 (C-myc): ≤ 1 µM
Compound: CC(=O)N1CCN(CCn2c(=O)n(C)c3ccc(-c4cn(C)c(=O)c5[nH]ccc45)c(OCC4CCC4)c32)CC1 [Example 66, 3-(2-(4-Acetylpiperazin-1-yl)ethyl)-4-(cyclobutylmethoxy)-1-methyl-5-(6-methyl-7-oxo-6,7-dihydro-1H-pyrrolo[2,3-c]pyridin-4-yl)-1H-benzo[d]imidazol-2(3H)-one]
IC50 (KMS.12.BM cells): ≤ 1 µM

IC50 (BRD4-BD1): < 0.1 µM
IC50 (BRD4-BD2): < 0.1 µM
IC50 (C-myc): ≤ 1 µM
Compound: Cn1cc(-c2ccc3c(c2OCC2CCC2)n(CCN2CCOCC2)c(=O)n3C)c2cc[nH]c2c1=O [Example 60, 4-(Cyclobutylmethoxy)-1-methyl-5-(6-methyl-7-oxo-6,7-dihydro-1H-pyrrolo[2,3-c]pyridin-4-yl)-3-(2-morpholin-4-ylethyl)-1,3-dihydro-2H-benzimidazol-2-one]
IC50 (KMS.12.BM cells): ≤ 1 µM

IC50 (BRD4-BD1): < 0.1 µM
IC50 (BRD4-BD2): < 0.1 µM
IC50 (C-myc): ≤ 1 µM
Compound: Cn1cc(-c2ccc3c([nH]c(=O)n3C)c2OC2CCCC2)c2cc[nH]c2c1=O [Example 93, 4-(Cyclopentyloxy)-1-methyl-5-(6-methyl-7-oxo-6,7-dihydro-1H-pyrrolo[2,3-c]pyridin-4-yl)-1,3-dihydro-2H-benzimidazol-2-one]
IC50 (KMS.12.BM cells): ≤ 1 µM

IC50 (BRD4-BD1): < 0.1 µM
IC50 (BRD4-BD2): < 0.1 µM
IC50 (C-myc): ≤ 1 µM
Compound: Cn1cc(-c2ccc3[nH]c(=O)[nH]c3c2OC2CCCOC2)c2cc[nH]c2c1=O (stereo not shown) [Example 26, 5-(6-Methyl-7-oxo-6,7-dihydro-1H-pyrrolo[2,3-c]pyridin-4-yl)-4-(tetrahydro-2H-pyran-3-yloxy)-1,3-dihydro-2H-benzimidazol-2-one]
IC50 (KMS.12.BM cells): ≤ 1 µM

IC50 (BRD4-BD1): < 0.1 µM
IC50 (BRD4-BD2): < 0.1 µM
IC50 (C-myc): ≤ 1 µM
Compound: Cn1cc(-c2ccc3c(c2OCC2CCC2)n(CCC#N)c(=O)n3C)c2cc[nH]c2c1=O [Example 62, 3-[7-(Cyclobutylmethoxy)-3-methyl-6-(6-methyl-7-oxo-6,7-dihydro-1H-pyrrolo[2,3-c]pyridin-4-yl)-2-oxo-2,3-dihydro-1H-benzimidazol-1-yl]propanenitrile]
IC50 (KMS.12.BM cells): ≤ 1 µM

IC50 (BRD4-BD1): < 0.1 µM
IC50 (BRD4-BD2): < 0.1 µM
IC50 (C-myc): ≤ 1 µM
Compound: CN1CCN(CCn2c(=O)n(C)c3ccc(-c4cn(C)c(=O)c5[nH]ccc45)c(OCC4CCC4)c32)CC1 [Example 68, 4-(Cyclobutylmethoxy)-1-methyl-5-(6-methyl-7-oxo-6,7-dihydro-1H-pyrrolo[2,3-c]pyridin-4-yl)-3-[2-(4-methylpiperazin-1-yl)ethyl]-1,3-dihydro-2H-benzimidazol-2-one]
IC50 (KMS.12.BM cells): ≤ 1 µM

IC50 (BRD4-BD1): < 0.1 µM
IC50 (BRD4-BD2): < 0.1 µM
IC50 (C-myc): ≤ 1 µM
Compound: Cn1cc(-c2ccc3ncn(CC(=O)N4CCOCC4)c3c2Oc2ccc(F)cc2F)c2cc[nH]c2c1=O [Example 30, 4-[7-(2,4-Difluorophenoxy)-1-(2-morpholin-4-yl-2-oxoethyl)-1H-benzimidazol-6-yl]-6-methyl-1,6-dihydro-7H-pyrrolo[2,3-c]pyridin-7-one]
IC50 (KMS.12.BM cells): ≤ 1 µM

IC50 (BRD4-BD1): < 0.1 µM
IC50 (BRD4-BD2): < 0.1 µM
IC50 (C-myc): ≤ 1 µM
Compound: Cn1cc(-c2ccc3c([nH]c(=O)n3CCN3CCOCC3)c2Oc2ccccc2)c2cc[nH]c2c1=O [Example 69, 5-(6-Methyl-7-oxo-6,7-dihydro-1H-pyrrolo[2,3-c]pyridin-4-yl)-1-(2-morpholin-4-ylethyl)-4-phenoxy-1,3-dihydro-2H-benzimidazol-2-one trifluoroacetate]
IC50 (KMS.12.BM cells): ≤ 1 µM

IC50 (BRD4-BD1): 0.1 to 1 µM
IC50 (BRD4-BD2): < 0.1 µM
IC50 (C-myc): ≤ 1 µM
Compound: Cn1cc(-c2ccc3c([nH]c(=O)n3C)c2OCc2ccccc2)c2cc[nH]c2c1=O [Example 27, 4-(Benzyloxy)-1-methyl-5-(6-methyl-7-oxo-6,7-dihydro-1H-pyrrolo[2,3-c]pyridin-4-yl)-1,3-dihydro-2H-benzimidazol-2-one]
IC50 (KMS.12.BM cells): ≤ 1 µM

IC50 (BRD4-BD1): < 0.1 µM
IC50 (BRD4-BD2): < 0.1 µM
IC50 (C-myc): ≤ 1 µM
Compound: Cn1cc(-c2ccc3ncn(CCN4CCOCC4)c3c2Oc2ccccc2)c2cc[nH]c2c1=O [Example 42, 6-Methyl-4-[1-(2-morpholin-4-ylethyl)-7-phenoxy-1H-benzimidazol-6-yl]-1,6-dihydro-7H-pyrrolo[2,3-c]pyridin-7-one]
IC50 (KMS.12.BM cells): ≤ 1 µM
